# According to patent US20240058337A1, “Managing Side Effects in T Cell Therapy” (Innovative Cellular Therapeutics Holdings, Ltd., priority 2022, published 2024):
# Experiments:
# Format in all cases: in vivo, human
# [1] = system: colorectal cancer (CRC) patients; assay: Clinical trial: response and disease control to CAR T therapy with or without dasatinib; details: patients who got dasatinib
# Experimental: (§1) This system was implemented in a clinical trial involving 35 colorectal cancer (CRC) patients, which were treated with mixed population of cells including GCC CAR T cells. Diarrhea, a common side effect, typically presented as early as day 7 (median=9, range 7-15) at a grade two severity or higher. The primary treatment for this was immediate administration of infliximab and, in some cases, dasatinib.
# (§2) For the 1×10^6 CAR T/kg of body weight dose, half of the patients managed their diarrhea through supportive care and antidiarrheal medication. Around 85% experienced grade 2 or higher diarrhea, 67% of whom responded well to a single dose of infliximab. At a higher dose of 2×10^6 CAR T/kg bodyweight, only 13% of patients could control diarrhea with supportive care or antidiarrheal drugs, and all patients experienced a grade 2 or higher diarrhea, but only 43% responded to a single infliximab dose. […] In such cases, dasatinib was administered at 100 mg/day for over ten consecutive days until the patient's side effects reduced to grade 1 or less, and the patient was ready for discharge.
# [2] = system: Cytokine Release Syndrome (CRS); assay: Cytokine Release Syndrome (CRS) management after CAR T therapy; details: grade 2 fever not resolved within 6 hours with conventional antipyretic methods
# Experimental: This fever typically occurs earliest on day 3 (median is day 5, range is day 3-12). Tocilizumab administration results in remission in 90% of cases. However, if 24 hours after administering tocilizumab, the patient still presents with a grade 2 or higher fever or a refractory fever, treatment with corticosteroids should be initiated following ASCO guidelines. The remaining 10% of patients typically responds well to corticosteroids. If there is no improvement within 24 hours after this step, the administration of dasatinib at 100 mg once daily for 2-3 days can be administered.
# [3] = system: colorectal cancer (CRC) patients; assay: Clinical trial of mixed population of cells including GCC CAR T cells: diarrhea side effect and its management
# Experimental: as §1, §2
molecule,measurement,setting,value
Cc1nc(Nc2ncc(C(=O)Nc3c(C)cccc3Cl)s2)cc(N2CCN(CCO)CC2)n1 [dasatinib],Disease Control Rate,[1]; 1 million cells/kg,33.3%
same,Response Rate to CAR T Therapy,[1]; 1 million cells/kg,0%
same,Disease Control Rate,[1]; 2 million+ cells/kg,75%
same,Response Rate to CAR T Therapy,[1]; 2 million+ cells/kg,50%
Tocilizumab,"remission of grade 2 fever (CRS) after tocilizumab administration, cases",[2],90%
infliximab,patients with grade 2 or higher diarrhea who responded well to a single dose of infliximab,[3]; 1×10^6 CAR T/kg of body weight,67%
same,patients with grade 2 or higher diarrhea who responded to a single infliximab dose,[3]; 2×10^6 CAR T/kg bodyweight,43%
same,patients who benefitted from a single dose of infliximab,[3]; 3×10^6 CAR T/kg body weight,fewer patients benefitted
